From ChEMBL document CHEMBL3244311, “Neuroleptics related to butaclamol. Synthesis and some psychopharmacological effects of a series of 3-aryl analogues” (J Med Chem, 1978)

Tests used:
Rattus norvegicus [1] = test: Antipsychotic activity in ip dosed Sprague-Dawley rat assessed as protection against epinephrine-induced mortality administered 1 hr prior to epinephrine-challenge measured up to 24 hrs; type: functional
Rattus norvegicus [2] = test: Antipsychotic activity in ip dosed Sprague-Dawley rat assessed as inhibition of amphetamine-induced stereotyped-behavior administered 15 mins post amphetamine-challenge measured for 4 hrs; type: functional; details: for minimal effective dose: read-out: MED
Rattus norvegicus [3] = species on record: Rattus norvegicus; test: Toxicity in Sprague-Dawley rat assessed as catalepsy at 10 times MED after 1 to 24 hrs relative to control; type: organism-based; details: in vivo
Rattus norvegicus [4] = test: Antipsychotic activity in ip dosed Sprague-Dawley rat assessed as suppression of conditioned avoidance response after 30 mins; type: functional
Rattus norvegicus [5] = species on record: Rattus norvegicus; test: Toxicity in Sprague-Dawley rat assessed as catalepsy at 10 times MED assessed as time required to reach peak effect; type: organism-based; details: in vivo
Rattus norvegicus [6] = test: Relative adrenolytic potency, ratio of ED50 for protection against epinephrine-induced mortality in ip dosed Sprague-Dawley rat to MED for suppression of conditioned avoidance response in ip dosed Sprague-Dawley rat; type: functional
Rattus norvegicus [7] = test: Ratio of MED for inhibition of amphetamine-induced stereotyped-behavior in ip dosed Sprague-Dawley rat to ED50 for suppression of conditioned avoidance response in ip dosed Sprague-Dawley rat; type: functional

| Molecule | ED50 (Rattus norvegicus [1]) [mg/kg] | inhibition (Rattus norvegicus [2]) | minimal effective dose (Rattus norvegicus [2]) [mg/kg] | %max (Rattus norvegicus [3]) [%] | ED50 (Rattus norvegicus [4]; 0.5 h) [mg/kg] | Time (Rattus norvegicus [5]) [h] | Ratio (Rattus norvegicus [6]) | Ratio (Rattus norvegicus [7]) | MED (Rattus norvegicus [2]) [mg/kg] | ED50 (Rattus norvegicus [4]) [mg/kg] |
| --- | --- | --- | --- | --- | --- | --- | --- | --- | --- | --- |
| Cl.O[C@]1(c2ccccc2)CCN2C[C@@H]3c4ccccc4CCc4cccc(c43)[C@H]2C1 (racemic) | 5.5 | Dose-dependent effect | 2.5 | 32 | 3 | 6 | 2.2 | – | – | – |
| Cc1ccccc1[C@@]1(O)CCN2C[C@@H]3c4ccccc4CCc4cccc(c43)[C@H]2C1.Cl (racemic) | 6.4 | Dose-dependent effect | 1.25 | 61 | 3.3 | 4 | 5.1 | 0.38 | – | – |
| Cl.O[C@]1(Cc2ccccc2)CCN2C[C@@H]3c4ccccc4CCc4cccc(c43)[C@H]2C1 (racemic) | > 40 | Dose-dependent effect | > 20 | – | – | – | – | – | – | – |
| COc1ccccc1[C@@]1(O)CCN2C[C@@H]3c4ccccc4CCc4cccc(c43)[C@H]2C1.Cl (racemic) | 4 | Dose-dependent effect | 0.63 | 89 | 0.92 | 4 | 6.3 | – | – | – |
| COc1cccc([C@@]2(O)CCN3C[C@@H]4c5ccccc5CCc5cccc(c54)[C@H]3C2)c1.Cl (racemic) | 2.7 | Dose-dependent effect | 1.25 | 83 | 1.4 | 6 | 2.2 | – | – | – |
| COc1ccc([C@@]2(O)CCN3C[C@@H]4c5ccccc5CCc5cccc(c54)[C@H]3C2)cc1.Cl (racemic) | 13.2 | Dose-dependent effect | 2.5 | 83 | 5.8 | 6 | 5.3 | 0.43 | – | – |
| COc1ccc([C@@]2(O)CCN3C[C@@H]4c5ccccc5CCc5cccc(c54)[C@H]3C2)cc1OC.Cl (racemic) | 1.1 | Dose-dependent effect | 5 | 100 | 6 | 4 | 0.22 | – | – | – |
| COc1ccc([C@@]2(O)CCN3C[C@@H]4c5ccccc5CCc5cccc(c54)[C@H]3C2)c(OC)c1.Cl (racemic) | 18 | Dose-dependent effect | 10 | 44 | 16 | 6 | 1.8 | – | – | – |
| Cl.O[C@]1(c2ccccc2Cl)CCN2C[C@@H]3c4ccccc4CCc4cccc(c43)[C@H]2C1 (racemic) | 11 | Dose-dependent effect | 2.5 | 100 | 3.3 | 4 | 4.4 | – | – | – |
| Cl.O[C@]1(c2cccc(F)c2)CCN2C[C@@H]3c4ccccc4CCc4cccc(c43)[C@H]2C1 (racemic) | 14.3 | Dose-dependent effect | 5 | 100 | 7 | 4 | 2.9 | – | – | – |
| Cl.O[C@]1(c2ccc(Br)cc2)CCN2C[C@@H]3c4ccccc4CCc4cccc(c43)[C@H]2C1 (racemic) | 6.9 | Dose-dependent effect | 20 | 72 | 14 | 4 | 0.35 | – | – | – |
| Cl.O[C@]1(c2ccccc2C(F)(F)F)CCN2C[C@@H]3c4ccccc4CCc4cccc(c43)[C@H]2C1 (racemic) | > 20 | Dose-dependent effect | 10 | 100 | 22.2 | 6 | >2 | 0.45 | – | – |
| Cl.O[C@]1(c2cccs2)CCN2C[C@@H]3c4ccccc4CCc4cccc(c43)[C@H]2C1 (racemic) | 22 | Dose-dependent effect | 2.5 | 100 | 5.6 | 6 | 8.8 | 0.45 | – | – |
| Cl.O[C@]1(c2ccsc2)CCN2C[C@@H]3c4ccccc4CCc4cccc(c43)[C@H]2C1 (racemic) | 90 | Dose-dependent effect | 5 | 93 | 8 | 6 | 18 | – | – | – |
| Cl.O[C@]1(c2ccco2)CCN2C[C@@H]3c4ccccc4CCc4cccc(c43)[C@H]2C1 (racemic) | 82 | Dose-dependent effect | 5 | 83 | 6.7 | 4 | 16.4 | – | – | – |
| Cl.O[C@]1(c2cccnc2)CCN2C[C@@H]3c4ccccc4CCc4cccc(c43)[C@H]2C1 (racemic) | 4.7 | Dose-dependent effect | 5 | 94 | 1 | 4 | 0.94 | – | – | – |
| CN(C)CCCN1c2ccccc2Sc2ccc(Cl)cc21 [CHLORPROMAZINE] | – | – | – | – | – | – | – | 1 | – | – |
| OCCN1CCN(CCCN2c3ccccc3Sc3ccc(C(F)(F)F)cc32)CC1 [FLUPHENAZINE] | – | – | – | – | – | – | – | 1 | – | – |
| O=C(CCCN1CCC(O)(c2ccc(Cl)cc2)CC1)c1ccc(F)cc1 [HALOPERIDOL] | – | – | – | – | – | – | – | 1 | – | – |
| CSc1ccc2c(c1)N(CCC1CCCCN1C)c1ccccc1S2 (stereo unspecified) [THIORIDAZINE] | – | – | – | – | – | – | – | 1 | – | – |
| Butaclamol | 15 | – | – | – | – | – | 24 | 1 | 0.63 | 0.64 |
